In the NIST ThermoML archive (doi:10.1016/j.tca.2015.07.010):
Numbers after ± are expanded uncertainties.

## O=NN1CN(N=O)CN(N=O)C1 [1,3,5-trinitroso-1,3,5-triazacyclohexane]
Crystal 1
  Triple point temperature: 380.15 ± 2 K
Crystal 2
  Triple point temperature: 369.25 ± 2 K
